Experimental data as given in publication PMC5533769, “A cell-based high-throughput screening assay system for inhibitor compounds of antigen presentation by HLA class II molecule” (Scientific Reports, 2017).

Tests used:
DR1 (DRB1*01:01) = molecular target: T1, DR1 (DRB1*01:01) (Homo sapiens, UniProt P01903+P01911, A100R/D57E/F55L/F60I/F76Y/I96L/L162R/M171V/P40L/Q125E/R42F/V115G/Y59C); experiment: 96-well competition assay: inhibition of MBP83-99 loading to DR1-expressing 3T3 cells; assay type: binding
T1 construct: The open reading frame for DRA or DRB1 were flanked with Xho 1 and EcoR1 sites; expressed in transfected cells

DR15 (DRB1*15:01) = molecular target: T2, DR15 (DRB1*15:01) (Homo sapiens, UniProt P01903+P01911, OTHER:DRA*01:01ANDEACHDRB1VECTORSWEREINTRODUCEDINTOTHECELLSAT1:1RATIO/OTHER:MBP83-99TODR15(DRB1*15:01)); experiment: 96-well competition assay: inhibition of MBP83-99 loading to DR15-expressing 3T3 cells; assay type: binding
T2 construct: The open reading frame for DRA or DRB1 were flanked with Xho 1 and EcoR1 sites; expressed in transfected cells

[1] = system: DR15-expressing 3T3 cells; conditions: crystal violet (A550); 1 h with CLIP, then MBP83-99 6 h
[2] = molecular target: T3, HLA-DR1 (DRA*01:01/DRB1*01:01) (Homo sapiens, UniProt P01903+P01911, A100R/D57E/F55L/F60I/F76Y/I96L/L162R/M171V/P40L/Q125E/R42F/V115G/Y59C); experiment: FACS binding of biotinylated peptide to HLA-DR1 on stable 3T3 cells; conditions: SA-PE, stable 3T3, DRA*01:01 + DRB1*01:01, biotinylated peptide 30 µM overnight
[3] = molecular target: HLA-DR15 (DRA*01:01/DRB1*15:01) (Homo sapiens, UniProt P01903+P01911); experiment: FACS binding of biotinylated peptide to HLA-DR15 on HEK293T cells; conditions: SA-PE, HEK293T transiently expressing DRA*01:01 + DRB1*15:01, biotinylated peptide 30 µM, 5 h (>5 h), 3 to 6 independent experiments
[4] = system: DR1 (DRB1*01:01) and DR4 (DRB1*04:01); conditions: HLA-DRB1*01:01 and DRB1*04:01; ref [4], [5]; cited from earlier work
From the text: An array of autoimmune diseases, including rheumatoid arthritis (RA) and multiple sclerosis (MS), are associated with particular alleles of HLA-DRB1[1], [3]. […] On ...

[5] = system: HLA-DR (DRB1*01:01, DRB1*04:05, DRB1*09:01, DRB1*15:01); experiment: FACS binding of biotinylated peptide to panel of HLA-DR on HEK293T cells; design: species or system human
[6] = molecular target: T3, HLA-DR1 (DRA*01:01/DRB1*01:01); experiment: FACS binding of biotinylated peptide to HLA-DR1 on HEK293T cells; conditions: SA-PE, biotinylated peptide 30 µM, >5 h, 3 to 6 independent experiments
[7] = system: HLA-DR (DRB1*01:01, DRB1*04:05, DRB1*09:01, DRB1*15:01); experiment: FACS binding of biotinylated peptide to panel of HLA-DR on stable 3T3 cells; design: species or system human; conditions: SA-PE, […], biotinylated peptide 30 µM overnight

**Q.** For `CSCC[C@H](NC(=O)[C@H](CCCNC(=N)N)NC(=O)[C@H](CCSC)NC(=O)[C@H](CCCCN)NC(=O)[C@H](CO)NC(=O)[C@@H](NC(=O)[C@@H]1CCCN1C(=O)[C@@H](N)CCCCN)C(C)C)C(=O)N[C@@H](C)C(=O)N[C@H](C(=O)N1CCC[C@H]1C(=O)N[C@@H](CC(C)C)C(=O)N[C@@H](CC(C)C)C(=O)N[C@@H](CCSC)C(=O)N[C@@H](CCC(N)=O)C(=O)N[C@@H](C)C(=O)N[C@@H](CC(C)C)C(=O)O)[C@@H](C)O` [CLIP102-118, Class II-associated invariant chain peptide (CLIP) 102–118], which “Cell number after binding assay (cytotoxicity), DR1 cells” value (DR1-expressing 3T3 cells) is on record?
**A.** Its value is “no difference in the cell number”.

**Q.** What about the IC50 (DR1 (DRB1*01:01)) of the same compound?
**A.** The IC50 was 8 µM.

**Q.** And the Kd (DR1 (DRB1*01:01))?
**A.** The Kd was 5 µM.

**Q.** What about the IC50 (DR15 (DRB1*15:01)) of the same compound?
**A.** Its IC50 is 9 µM.

**Q.** And the Kd (DR15 (DRB1*15:01))?
**A.** The Kd was 3 µM.

**Q.** And the “Cell number after binding assay (cytotoxicity), DR15 cells” value [1]?
**A.** Its value is “no difference in the cell number”.

**Q.** Which “Peptide binding, DR1 on 3T3” value [2] does the source give for “GIAGFKGEQGPKGEP [CII263-272, type II collagen (CII) 263–272, biotinylated type II collagen peptide]” here?
**A.** Its value is “very weakly”.

**Q.** And the “Peptide binding (MFI), HLA-DR15” value [3]?
**A.** The value was “Significant binding”.

**Q.** And the “Presentation by DR1 and DR4” value [4]?
**A.** The value was “present peptide from type II collagen”.

**Q.** What about the “Binding MFI compared with MBP83-99” value [5] of the same compound?
**A.** The value was “far less than that for MBP83-99 binding”.

**Q.** And the “Peptide binding (MFI), HLA-DR1” value [6]?
**A.** Its value is “Significant binding”.

**Q.** And the “Peptide binding across HLA-DR genotypes on 3T3” value [7]?
**A.** Its value is “not at all to other DR-expressing cells”.
